From patent US11008317B2, “Triazolopyridine inhibitors of myeloperoxidase and/or EPX” (priority 2016, dated 2021)

Key:
myeloperoxidase [1] = target: T1, myeloperoxidase (Homo sapiens, UniProt P05164); test: MPO Chlorination Assay (APF Assay); type: biochemical; settings: potency range class, read-out: APF Assay IC50 value
T1 sequence (P05164 49-745): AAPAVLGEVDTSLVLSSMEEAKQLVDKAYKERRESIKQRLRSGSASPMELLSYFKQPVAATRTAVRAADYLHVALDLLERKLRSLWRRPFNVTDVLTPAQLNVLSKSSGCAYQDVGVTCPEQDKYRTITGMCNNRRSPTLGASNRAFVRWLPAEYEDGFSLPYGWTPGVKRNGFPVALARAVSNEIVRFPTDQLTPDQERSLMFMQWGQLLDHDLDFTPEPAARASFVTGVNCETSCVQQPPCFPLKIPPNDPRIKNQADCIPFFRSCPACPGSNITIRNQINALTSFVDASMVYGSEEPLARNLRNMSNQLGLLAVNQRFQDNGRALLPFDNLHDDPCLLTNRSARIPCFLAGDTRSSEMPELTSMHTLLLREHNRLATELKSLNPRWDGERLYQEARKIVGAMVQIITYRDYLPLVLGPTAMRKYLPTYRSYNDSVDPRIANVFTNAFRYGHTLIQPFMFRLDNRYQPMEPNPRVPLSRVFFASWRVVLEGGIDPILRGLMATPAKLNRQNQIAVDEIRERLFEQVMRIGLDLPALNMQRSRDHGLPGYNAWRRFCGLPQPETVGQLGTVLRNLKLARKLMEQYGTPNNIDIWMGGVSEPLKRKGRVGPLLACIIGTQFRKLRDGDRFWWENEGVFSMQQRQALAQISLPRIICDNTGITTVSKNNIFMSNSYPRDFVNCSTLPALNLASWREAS

myeloperoxidase [2] = target: T1, myeloperoxidase; test: MPO Peroxidation Assay (Amplex Red Assay); type: biochemical; settings: potency range class, read-out: Amplex Red Assay IC50 value

SMILES	IC50 (myeloperoxidase [1]) [nM]	IC50 (myeloperoxidase [2]) [nM]
Nc1cc(C(CCNCc2ccccc2Cc2ccc3c(c2)CCCC3)c2ccccc2)c2nn[nH]c2n1 (centres unmarked) [Example 78, 7-{1-phenyl-3-[({2-[(5,6,7,8-tetrahydronaphthalen-2-yl)methyl]phenyl}methyl)amino]propyl}-3H-[1,2,3] triazolo[4,5-b] pyridin-5-amine]	1 to 100	101 to 999
Nc1cc(C(CCCN2CCC(c3ccccc3)c3ccccc32)c2ccccc2)c2nn[nH]c2n1 (centres unmarked) [Example 206, 7-[1-phenyl-4-(4-phenyl-1,2,3,4-tetrahydroquinolin-1-yl)butyl]-3H-[1,2,3]triazolo [4,5-b]pyridin-5-amine]	1 to 100	1000 to 10000
COC1CC2(c3ccccc3)CCC1(NCC[C@H](c1ccccc1)c1cc(N)nc3[nH]nnc13)CC2 (stereo partly drawn) [Example 153, 7-[(1R)-3-({2-methoxy-4-phenylbicyclo[2.2.2]octan-1-yl}amino)-1-phenylpropyl]-3H-[1,2,3]triazolo[4,5-b]pyridin-5-amine]	1 to 100	1 to 100
CC1C[C@H](NCCC(c2ccccc2)c2cc(N)nc3[nH]nnc23)c2ccccc21 (stereo partly drawn) [Example 99, 7-(3-{[(1S)-3-methyl-2,3-dihydro-1H-inden-1-yl]amino}-1-phenylpropyl)-3H-[1,2,3]triazolo[4,5-b] pyridin-5-amine]	1 to 100	101 to 999
Nc1cc(C(CCN[C@H]2CCc3ccc(F)cc32)c2ccccc2)c2nn[nH]c2n1 (stereo partly drawn) [Example 57, 7-(3-{[(1S)-6-fluoro-2,3-dihydro-1H-inden-1-yl]amino}-1-phenylpropyl)-3H-[1,2,3]triazolo[4,5-b]pyridin-5-amine]	1 to 100	101 to 999
Nc1cc(C(CCNC2CCCc3ccccc32)c2ccccc2)c2nn[nH]c2n1 (centres unmarked) [Example 28, 7-{1-phenyl-3-[(1,2,3,4-tetrahydronaphthalen-1-yl)amino]propyl}-3H-[1,2,3]triazolo [4,5-b]pyridin-5-amine]	1 to 100	1 to 100
Nc1cc(C(CCN[C@H]2CC[C@H](c3ccccc3)CC2)c2cccc(OC(F)F)c2)c2nn[nH]c2n1 (stereo partly drawn) [Example 166, 7-{1-[3-(difluoromethoxy)phenyl]-3-{[(trans)-4-phenylcyclohexyl]amino}propyl}-3H-[1,2,3]triazolo[4,5-b]pyridin-5-amine]	1 to 100	101 to 999
Nc1cc(C(CCCN[C@H]2CC[C@H](c3ccccc3)CC2)c2ccccc2)c2nn[nH]c2n1 (stereo partly drawn) [Example 208, 7-(1-phenyl-4-{[(trans)-4-phenylcyclohexyl]amino}butyl)-3H-[1,2,3]triazolo [4,5-b]pyridin-5-amine]	101 to 999	1000 to 10000
Nc1cc(C(CCNCc2cccc3ccccc23)c2ccccc2)c2nn[nH]c2n1 (centres unmarked) [Example 17, 7-(3-((naphthalen-1-ylmethyl)amino)-1-phenylpropyl)-3H-[1,2,3]triazolo[4,5-b]pyridin-5-amine]	1 to 100	101 to 999
Nc1cc(C(CCNC2(Cc3ccccc3)CCC(c3ccccc3)CC2)c2ccccc2)c2nn[nH]c2n1 (centres unmarked) [Example 142, 7-{3-[(1-benzyl-4-phenylcyclohexyl)amino]-1-phenylpropyl}-3H-[1,2,3]triazolo[4,5-b]pyridin-5-amine]	101 to 999	1000 to 10000
CC1(NCCC(c2ccccc2)c2cc(N)nc3[nH]nnc23)CCc2ccccc21 (centres unmarked) [Example 110, 7-{3-[(1-methyl-2,3-dihydro-1H-inden-1-yl)amino]-1-phenylpropyl}-3H-[1,2,3]triazolo[4,5-b]pyridin-5-amine]	101 to 999	101 to 999
Nc1cc(C(CCNC2Cc3ccccc3C2)c2ccccc2)c2nn[nH]c2n1 (centres unmarked) [Example 41, 7-{3-[(2,3-dihydro-1H-inden-2-yl)amino]-1-phenylpropyl}-3H-[1,2,3]triazolo[4,5-b]pyridin-5-amine]	101 to 999	101 to 999
Nc1cc(C(CCNC2CCCc3ccccc32)c2ccccc2)c2nn[nH]c2n1 (centres unmarked) [Example 25, 7-{1-phenyl-3-[(1,2,3,4-tetrahydronaphthalen-1-yl)amino]propyl}-3H-[1,2,3] triazolo[4,5-b] pyridin-5-amine]	1 to 100	101 to 999
Nc1cc([C@H](CCN(CC(F)F)C23CCC(c4ccccc4)(CC2)CC3)c2ccccc2)c2nn[nH]c2n1 [Example 197, 7-[(1R)-3-[(2,2-difluoroethyl)({4-phenylbicyclo[2.2.2]octan-1-yl})amino]-1-phenylpropyl]-3H-[1,2,3]triazolo[4,5-b]pyridin-5-amine]	1 to 100	101 to 999
Nc1cc(C(CCN[C@@H]2CCc3ccc(C(F)(F)F)cc32)c2ccccc2)c2nn[nH]c2n1 (stereo partly drawn) [Example 124, 7-(1-phenyl-3-{[(1R)-6-(trifluoromethyl)-2,3-dihydro-1H-inden-1-yl]amino}propyl)-3H-[1,2,3] triazolo[4,5-b] pyridin-5-amine]	101 to 999	1000 to 10000
Nc1cc(C(CCN[C@H]2C[C@@H](c3ccccc3)C2)c2ccccc2)c2nn[nH]c2n1 (some centres unmarked) [Example 76, 7-(1-phenyl-3-{[(1s,3s)-3-phenylcyclobutyl]amino}propyl)-3H-[1,2,3]triazolo[4,5-b]pyridin-5-amine]	1 to 100	101 to 999
Nc1cc(C(CCN[C@@H]2CCc3ccc(F)cc32)c2ccccc2)c2nn[nH]c2n1 (stereo partly drawn) [Example 60, 7-(3-{[(1R)-6-fluoro-2,3-dihydro-1H-inden-1-yl]amino}-1-phenylpropyl)-3H-[1,2,3]triazolo[4,5-b]pyridin-5-amine]	1 to 100	101 to 999
CC1(C)C[C@H](NCCC(c2ccccc2)c2cc(N)nc3[nH]nnc23)c2ccccc21 (stereo partly drawn) [Example 87, 7-(3-{[(1S)-3,3-dimethyl-2,3-dihydro-1H-inden-1-yl]amino}-1-phenylpropyl)-3H-[1,2,3]triazolo [4,5-b]pyridin-5-amine]	1 to 100	101 to 999
CC1(NCCC(c2ccccc2)c2cc(N)nc3[nH]nnc23)CCC(c2ccccc2)CC1 (mixture of isomers) [Example 143, 7-{3-[(1-methyl-4-phenylcyclohexyl)amino]-1-phenylpropyl}-3H-[1,2,3]triazolo[4,5-b]pyridin-5-amine]	101 to 999	101 to 999
Nc1cc([C@H](CC(=O)NC23CCC(c4ccccc4)(CC2)C(O)C3)c2ccccc2)c2nn[nH]c2n1 (stereo partly drawn) [Example 201, (3R)-3-{5-amino-3H-[1,2,3]triazolo[4,5-b]pyridin-7-yl}-N-{3-hydroxy-4-phenylbicyclo [2.2.2]octan-1-yl}-3-phenylpropanamide]	1 to 100	101 to 999
Nc1cc(C(CCNC2CCN(c3ccccc3)CC2)c2ccccc2)c2nn[nH]c2n1 (centres unmarked) [Example 92, N-(3-{5-amino-3H-[1,2,3]triazolo [4,5-b]pyridin-7-yl}-3-phenylpropyl)-1-phenylpiperidin-4-amine]	1 to 100	1000 to 10000
Nc1cc(C(CCNC2CCCc3ccccc32)c2ccccc2)c2nn[nH]c2n1 (centres unmarked) [Example 29, 7-{1-phenyl-3-[(1,2,3,4-tetrahydronaphthalen-1-yl)amino]propyl}-3H-[1,2,3]triazolo [4,5-b]pyridin-5-amine]	1 to 100	1 to 100
Nc1cc([C@H](Cc2nc3ccccc3[nH]2)c2ccccc2)c2nn[nH]c2n1 [Example 261, (R)-7-(2-(1H-benzo [d]imidazol-2-yl)-1-phenylethyl)-3H-[1,2,3]triazolo[4,5-b] pyridin-5-amine]	1000 to 10000	101 to 999
Cn1c(C[C@H](c2ccccc2)c2cc(N)nc3[nH]nnc23)nc2ccc(-c3ccccc3)cc21 [Example 257, (R)-7-(2-(1-methyl-6-phenyl-1H-benzo[d]imidazol-2-yl)-1-phenylethyl)-3H-[1,2,3]triazolo[4,5-b] pyridin-5-amine]	101 to 999	1000 to 10000
Nc1cc(C(CNCCc2ccccc2)c2ccccc2)c2nn[nH]c2n1 (centres unmarked) [Example 228, 7-{1-phenyl-2-[(2-phenylethyl)amino]ethyl}-3H-[1,2,3]triazolo[4,5-b]pyridin-5-amine]	1000 to 10000	1000 to 10000
Nc1cc(C(CCN[C@H]2CC[C@@H](c3ccc(Cl)cc3)CC2)c2ccccc2)c2nn[nH]c2n1 (some centres unmarked) [Example 107, 7-(1-phenyl-3-{[(1s,4s)-4-(4-chlorophenyl)cyclohexyl]amino}propyl)-3H-[1,2,3] triazolo[4,5-b] pyridin-5-amine]	1 to 100	101 to 999
Nc1cc(C(CCN[C@H]2CC[C@H](c3ccncc3)CC2)c2ccccc2)c2nn[nH]c2n1 (stereo partly drawn) [Example 139, 7-(1-phenyl-3-{[(trans)-4-(pyridin-4-yl)cyclohexyl]amino}propyl)-3H-[1,2,3] triazolo[4,5-b] pyridin-5-amine]	1 to 100	101 to 999
Nc1cc(C(CCN[C@@H](CO)CCCc2ccccc2)c2ccccc2)c2nn[nH]c2n1 (stereo partly drawn) [Example 236, (R)-2-((3-(5-amino-3H-[1,2,3]triazolo[4,5-b]pyridin-7-yl)-3-phenylpropyl)amino)-5-phenylpentan-1-ol]	1 to 100	1000 to 10000
